Data on 52 compounds can be found in PubChem BioAssay AID1996.

Values after ≈ are worked out from the molar mass of the structure shown. Some results are limits rather than exact numbers.

The term solubility (kinetic) denotes the concentration staying in solution when a stock, usually in DMSO, is diluted into the medium.

The conditions of the series: buffer; pH 7.4; 200.0 µM.
`O=C(NCCSCc1ccc(Cl)cc1)c1cccs1`: the kinetic solubility worked out at 21.5 µg/mL (≈ 68.9 µM).
The value for `C=CCOCCN(C)C1=NS(=O)(=O)c2ccccc21.Cl` was over 47.5 µg/mL; that for `COc1ccc(NC(=O)N2CCOCC2)cc1` was over 35.4 µg/mL.
The value for `NCCCn1cnc2ccccc21` was over 26.3 µg/mL.
The value for `CCOC(=O)c1c(NC(=O)CNC2CCCCC2)sc(C)c1C` was under 0.4 µg/mL; that for `CC1(C)SC(=S)N(c2ccccc2)C1/[N+]([O-])=C/c1cccc([N+](=O)[O-])c1` (configuration not stated) was 6.2 µg/mL (≈ 16 µM); that for `Cc1cc(C)c2ccc(Cl)cc2n1` was 1.5 µg/mL (≈ 7.83 µM).
For the compound `O=C(Nc1cscc1S(=O)(=O)c1ccccc1)c1ccccc1Cl`, the kinetic solubility was 10.3 µg/mL (≈ 27.3 µM).
The value for `COCC(=O)OCC(=O)Nc1ccccc1-c1ccccc1` was over 44.9 µg/mL.
The value for `NC(=O)CN1C(=O)C(=O)N(Cc2ccccc2Cl)C1=O` was over 44.4 µg/mL; that for `CCc1nnc(NC(=O)C2(C)COC(c3ccccc3)OC2)s1` (configuration not stated) was over 50 µg/mL.
The value for `CCOC(=O)c1[nH]c(C=O)c(C(=O)OCC)c1C` was 20.7 µg/mL (≈ 81.7 µM).
In turn, `COc1cccc(C(=O)Nc2nc3ccccc3s2)c1` came in with a kinetic solubility of 1.6 µg/mL (≈ 5.63 µM).
The value for `CCN(CC)C(=O)c1cc2c(=O)n3cccc(C)c3nc2s1` was 43.4 µg/mL (≈ 138 µM).
The value for `CN(CCN1CCOCC1)Cc1nc(-c2ccc(Cl)cc2)no1` was 38.1 µg/mL (≈ 113 µM); that for `CCN1CCc2c(OCC(=O)N3CCC(C)CC3)cccc2C1=O` was 46.2 µg/mL (≈ 140 µM); that for `COC(=O)c1nc2ccc(N3CCOCC3)cc2c(C)c1C(=O)OC` was over 51.7 µg/mL.
The value for `COC(=O)c1ccc(NC(=O)N(c2ccccc2)c2ccccc2)cc1` was 0.7 µg/mL (≈ 2.02 µM); that for `CCOc1ccc(/C=C2\SC(N3CCCCC3)=NC2=O)cc1` was 1.6 µg/mL (≈ 5.06 µM).
On to `O=Cc1ccc2ccc3cccnc3c2n1`, for which the solubility (kinetic) is over 31.2 µg/mL.
The value for `Cc1c(NC(=O)c2ccc(NS(=O)(=O)c3ccc(F)c(F)c3)cc2)c(=O)n(-c2ccccc2)n1C` was over 74.8 µg/mL; that for `CC(=O)Nc1ccc(NC(=O)c2cc[n+]([O-])cc2)cc1` was over 40.7 µg/mL; that for `O=C1Nc2ccccc2C1Cc1nc2ccccc2c(=O)n1-c1ccccc1` (configuration not stated) was 55.1 µg/mL (≈ 150 µM).
The value for `COc1cc(C(=S)N2CCOCC2)cc(OC)c1O` was over 42.5 µg/mL.
The value for `CC(C)OP(=O)(OC(C)C)C(Nc1ccccc1)c1cccnc1` (configuration not stated) was 46.5 µg/mL (≈ 133 µM); that for `O=[N+]([O-])c1ccccc1S(=O)(=O)Nc1cccc2cccnc12` was 1.8 µg/mL (≈ 5.47 µM).
`COc1ccc(C2CC(=O)C(C=NCCO)=C(O)C2)cc1` (configuration not stated) registered a kinetic solubility of 38 µg/mL (≈ 131 µM).
The value for `Cc1ccc(S(=O)(=O)/N=C2\C=C(Nc3ccc(O)cc3)C(=O)c3ccccc32)cc1` was 0.9 µg/mL (≈ 2.15 µM); that for `CCCN(Cc1ccccc1)C(=S)Nc1ccc(OCC)cc1` was 17.9 µg/mL (≈ 54.5 µM).
The value for `CCCCNC(=O)CSc1nc2ccc(C)cc2[nH]1` was over 41.6 µg/mL.
The value for `O=C(Nc1cccc(Cl)c1)c1cncn1-c1ccc(F)cc1` was 45.4 µg/mL (≈ 144 µM); that for `CNC(=O)c1cc(C(=O)c2ccccc2Br)c[nH]1` was over 46.1 µg/mL; that for `Cc1ccc2[nH]c(C)c(CCNC(=O)NC3CCCCC3)c2c1` was 1 µg/mL (≈ 3.19 µM).
Turning to `Cc1ccc(NC(=O)CN(CCc2ccccc2)S(C)(=O)=O)cc1`, the solubility (kinetic) was 51.6 µg/mL (≈ 149 µM).
The value for `c1ccc2c(c1)nc(N1CCOCC1)c1ccccc12` was 14.9 µg/mL (≈ 56.4 µM).
The value for `O=C(COC(=O)CC1CCCC1)Nc1ccc(Cl)cn1` was 9.1 µg/mL (≈ 30.7 µM); that for `COc1cc2ncnc(NCc3cccc(F)c3F)c2cc1OC` was 10.7 µg/mL (≈ 32.3 µM); that for `CC(=O)N1CCN(C(=O)CNC(=O)c2ccc(Br)o2)CC1` was over 53.7 µg/mL.
The value for `Cc1ccccc1NC(=O)Cn1cc(C(=O)C2CC2)c2ccccc21` was 0.7 µg/mL (≈ 2.11 µM).
Consider `Cc1ccc(NCc2nc3ccccc3n2C)c(C)c1`, for which the kinetic solubility came out at 32.1 µg/mL (≈ 121 µM).
In turn, `NC(=S)Nc1ccc(C(F)(F)F)cc1Cl` returned a solubility (kinetic) of 33.5 µg/mL (≈ 132 µM).
`O=C(Cc1ccc(O)cc1)N/N=C/c1cccnc1` gave a kinetic solubility of over 38.3 µg/mL.
The value for `COC(=O)c1ccc(COC(=O)c2cccnc2Cl)cc1` was 37.8 µg/mL (≈ 124 µM).
The value for `CCc1ccc(NC(=O)CSc2ccccn2)cc1` was 33.7 µg/mL (≈ 124 µM); that for `CCc1ccc(NC(=O)COC(=O)CC2CCCC2)cc1` was 26 µg/mL (≈ 89.8 µM).
In the case of `COC(=O)c1ccc(NC(=O)c2cc[n+](Cc3ccccc3)cc2)cc1.[Cl-]`, the solubility (kinetic) was determined as 50.7 µg/mL.
The value for `CCCC(=O)c1c[nH]c(C(=O)NCc2cccnc2)c1` was 18.1 µg/mL (≈ 66.7 µM).
The value for `O=C(NCc1ccccc1)C(=O)Nc1nc(-c2ccccc2)cs1` was under 0.2 µg/mL; that for `CCOC(=O)c1cnc2cc(F)c(F)cc2c1N1CCN(C)CC1` was 30.7 µg/mL (≈ 91.5 µM).
For the compound `Cn1cccc1-c1nc2ccccc2n1C`, the solubility (kinetic) is over 31.7 µg/mL.
The value for `COc1ccc(NC(=O)c2oc3ccccc3c2CSC)cn1` was 3 µg/mL (≈ 9.14 µM).
The value for `Fc1ccc(OCCOCCN2CCNCC2)cc1.O=C(O)C(=O)O` was 51 µg/mL.
